{
  "source": "paper PMC5862576",
  "about": "“Mitochondrial fission as a driver of stemness in tumor cells: mDIVI1 inhibits mitochondrial function, cell migration and cancer stem cell (CSC) signalling” (Oncotarget, 2018)",
  "key": {"MCF7 cells [1]": {"tested_on": "MCF7 cells", "assay": "DAPI immunofluorescence staining (binucleated cells)", "type": "cell-based, Human", "details": "50 µM; data not shown"}, "TGFβ signalling": {"tested_on": "TGFβ signalling", "assay": "Luciferase reporter assay MCF7-GFP-SMAD(luc)", "type": "cell-based, Human", "details": "50 µM, 2 and 5 days", "experimental": "(§1) The Cignal Lenti reporter assay (luc) was used to monitor the activity of several signalling pathways in MCF7-GFP cells as explained previously. Luciferase Assay System (E1501, Promega) was performed according to manufacturer’s instructions. 1 × 10^4 MCF7 were seeded in black-walled 96 well plates. When cells were attached, drug treatments were added for 18, 48 hours and 5 days. After treatment, Luciferase Assay was performed according to manufacturer’s instructions and light signal was acquired in the Xenogen VivoVision IVIS Lumina. Results were normalized by SRB staining of cells grown in 96-well plates in parallel.\n(§2) SRB (S9012, Sigma) measures total biomass by staining cellular proteins. After treatment, cells were fixed in 10% tricloroacetic acid (T9159, Sigma) for 1 hour at 4° C, stained with SRB (S9012, Sigma) for 15 minutes, and washed 3 times with 1% acetic acid (27225, Sigma). The incorporated die was solubilized with 10 mM Tris Base, pH 8.8 (T1503, Sigma). Absorbance was spectrophotometrically measured at 562 nm in a FluoStar Omega plate reader (BMG Labtech). Background measurements were subtracted from all values."}, "MCF7 cells [2]": {"tested_on": "MCF7 cells", "assay": "Mitochondrial superoxide (MitoSOX, flow cytometry)", "type": "cell-based, Human", "details": "both concentrations; 24 hour, 2 and 5 days; vs vehicle", "experimental": "(§3) For both assays, 2 × 10^5 MCF7 cells were seeded in 35 mm plates. When cells were attached, either vehicle or mDIVI1 were added to the cells for 24, 48 hours or 5 days in triplicate. Reactive oxygen species (ROS) production was measured using CM-H2DCFDA (C6827, Invitrogen). Briefly, cells were incubated for 20 minutes at 37° C with 1 µM CM-H2DCFDA diluted in PBS and then placed in complete media for 20 minutes at 37° C in the dark, to render the dye fluorescent, according to the manufacturer. Mitochondrial superoxide was measured using MitoSOX Red Mitochondrial Superoxide Indicator (M36008, ThermoFisher Scientific). Briefly, cells were incubated for 10 minutes at 37° C in the dark with 5 µM MitoSOX diluted in PBS, according to the manufacturer. ROS signal and MitoSOX signal was quantified as mean fluorescent intensity of the viable cell population in a Fortessa flow cytometer (BD Bioscience). Results were analysed using FlowJo software."}, "MCF7 cells [3]": {"tested_on": "MCF7 cells", "assay": "Scratch assay (wound closure)", "type": "cell-based, Human", "details": "48 hours", "experimental": "A hundred thousand MCF7 cells per well were seeded in 12-well plates. When cells were attached, a horizontal scratch was performed using the tip of a pipette. Immediately after, the media was removed and either fresh vehicle-containing media or mDIVI1-containing media were added to the cells for 48 hours. Four replicates were used for each condition. Cells were incubated in a 5% CO2 atmosphere at 37° C in an Incucyte ZOOM System (Essen Bioscience). The wound closure was monitored by taking pictures of each well every 4 hours. At the end of the treatment, pictures of the wells at 0 and 48 hours were analysed using ImageJ software to calculate wound closure according to the following formula: Percentage wound closure=[(wound area0h−wound area48h)/wound area0h]×100"}, "MCF7 cells [4]": {"tested_on": "MCF7 cells", "assay": "Total ROS (CM-H2DCFDA, flow cytometry)", "type": "cell-based, Human", "details": "24, 48 hours or 5 days", "experimental": "as §3"}, "MCF7 cells [5]": {"tested_on": "MCF7 cells", "assay": "DAPI viability of cells in suspension (anoikis resistance, FACS)", "type": "cell-based, Human", "experimental": "Following mDIVI1 treatment, MCF7 cells grown either in suspension or as monolayers were analysed for their expression of CD24 and CD44. The surviving fraction after 2 days and 5 days of growth was analyzed by FACS. MCF7 cells were either trypsinised or spun down and trypsinised and incubated with CD24 (IOTest CD24-PE, Beckman Coulter) and CD44 (APC mouse anti-human CD44, 559942, BD Pharmingen) for 15 minutes on ice. Cells were then rinsed twice in PBS, spun down, and resuspended with DAPI dye (D1306, Molecular probes) at 3 μM in PBS for 10 minutes. Samples were then analyzed by FACS (Fortessa, BD Bioscence). Only the live cell population, identified using the DAPI staining, was analyzed for CD24/CD44 expression. Data were analyzed using FlowJo software."}, "A375 melanoma": {"tested_on": "A375 melanoma", "assay": "Tumorsphere formation assay, A375", "type": "cell-based", "details": "five days", "experimental": "(§4) A single cell suspension was prepared using enzymatic (1× Trypsin-EDTA, T3924, Sigma Aldrich), and manual disaggregation (25 gauge needle). Cells were plated at a density of 5000 cells/well in tumorsphere media (DMEM-F12/B27/EGF (20ng/ml)/Pen-Strep) in non-adherent conditions, in 6-well plates coated with (2-hydroxyethylmethacrylate) (poly-HEMA, P3932, Sigma) in the presence of mDIVI1 or vehicle. After 5 days of culture in a humidified incubator at 37° C, tumorspheres bigger than 50 μm were counted using an eye piece graticule."}, "Hedgehog signalling": {"tested_on": "Hedgehog signalling", "assay": "Luciferase reporter assay MCF7-GFP-GLI(luc)", "type": "cell-based, Human", "details": "50 µM, 2 and 5 days", "experimental": "as §1, §2"}, "Wnt signalling": {"tested_on": "Wnt signalling", "assay": "Luciferase reporter assay MCF7-GFP-TCF/LEF(luc)", "type": "cell-based, Human", "details": "50 µM, 2 and 5 days", "experimental": "as §1, §2"}, "MCF7 cells [6]": {"tested_on": "MCF7 cells", "assay": "Tumorsphere formation assay, MCF7", "type": "cell-based, Human", "details": "five days, vs vehicle", "experimental": "as §4"}},
  "data": [
    {"smiles": "COc1cc(-n2c(=S)[nH]c3ccccc3c2=O)c(Cl)cc1Cl", "note": "[mDIVI1, 3-(2,4-Dichloro-5-methoxyphenyl) 2,3-dihydro 2-thioxo-4(1H) quinazolinone]", "values": [
      {"measurement": "binucleated cells (failure of cytokinesis)", "setting": "MCF7 cells [1]", "value": "increase in binucleated cells"},
      {"measurement": "TGFβ/SMAD pathway luciferase activity", "setting": "TGFβ signalling", "value": "strikingly caused the inhibition"},
      {"measurement": "mitochondrial superoxide production (MitoSOX)", "setting": "MCF7 cells [2]", "value": "significantly increased"},
      {"measurement": "reduction of percentage of wound closure vs vehicle", "setting": "MCF7 cells [3]; 10 µM", "value": 14, "unit": "%"},
      {"measurement": "reduction of percentage of wound closure vs vehicle", "setting": "MCF7 cells [3]; 50 µM", "value": 44, "unit": "%"},
      {"measurement": "general oxidative stress levels (total ROS)", "setting": "MCF7 cells [4]", "value": "did not change"},
      {"measurement": "cell viability under anchorage-independent conditions (DAPI) vs vehicle", "setting": "MCF7 cells [5]", "value": "no significant differences"},
      {"measurement": "decrease of A375 tumorsphere forming capacity", "setting": "A375 melanoma; 10 µM", "value": "over 35%"},
      {"measurement": "decrease of A375 tumorsphere forming capacity", "setting": "A375 melanoma; 50 µM", "value": "over 90%"},
      {"measurement": "Hedgehog/GLI pathway luciferase activity", "setting": "Hedgehog signalling", "value": "strikingly caused the inhibition"},
      {"measurement": "Wnt/TCF pathway luciferase activity", "setting": "Wnt signalling", "value": "strikingly caused the inhibition"},
      {"measurement": "decrease of MCF7 tumorsphere number", "setting": "MCF7 cells [6]; 10 µM", "value": 50, "unit": "%"},
      {"measurement": "decrease of MCF7 tumorsphere number", "setting": "MCF7 cells [6]; 50 µM", "value": 80, "unit": "%"},
      {"measurement": "decrease of MCF7 tumorsphere number", "setting": "MCF7 cells [6]; 100 µM", "value": 95, "unit": "%"}
    ]}
  ]
}
